Experimental data published in patent US9783536B2, “Nitrogen-containing heterocyclic compound or salt thereof” (FUJIFILM Corporation, priority 2013, dated 2017).
Like-named read-outs stand apart in the source and are kept apart here.

Legend:
[1] = biological target: T1, GST fusion human ERK2 protein (Homo sapiens, UniProt P28482); assay: ERK2 enzyme assay (2); format: biochemical; conditions: read-out: ERK2 enzyme inhibitory activity (2)
T1 construct: purchased Carna Biosciences, Inc; host or cells: E. coli expression system
T1 sequence (P28482 whole entry, the tested form may be a part): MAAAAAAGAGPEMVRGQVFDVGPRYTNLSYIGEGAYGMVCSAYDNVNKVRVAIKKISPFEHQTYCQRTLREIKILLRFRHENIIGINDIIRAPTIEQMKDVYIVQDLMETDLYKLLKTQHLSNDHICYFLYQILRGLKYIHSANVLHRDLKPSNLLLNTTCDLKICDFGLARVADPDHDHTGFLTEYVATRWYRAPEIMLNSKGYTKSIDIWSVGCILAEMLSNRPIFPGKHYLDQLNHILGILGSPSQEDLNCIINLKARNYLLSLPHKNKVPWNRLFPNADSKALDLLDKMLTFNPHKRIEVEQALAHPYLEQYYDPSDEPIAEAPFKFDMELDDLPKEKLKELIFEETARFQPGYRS
Procedure, shortened: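 GST-tagged human ERK2 expressed in E. coli (1.25 nmol/L) was preincubated with compound for 15 min at room temperature in pH 7.5 Hepes buffer with MgCl2, DTT and Brij35. Reaction with FL-Peptide 8 (final 4.25 μmol/L) and ATP (final 1 mmol/L) ran 120 min at 25 °C; EDTA stopped it, and phosphorylated peptide was quantified by mobility-shift separation to derive IC50.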

CHO-K1 cells = assay: CHO cell toxicity test; format: cell-based, Chinese hamster; conditions: Cricetulus griseus; CHO-K1 cells, 24 hours culture with compound, CellTiter-Glo; read-out: IC50 value (concentration at which the number of viable cells was suppressed to 50% or less)
Description: In a CHO cell toxicity test, the following was used.
Cell: CHO-K1 cells (derived from Chinese hamster ovary) Test medium: F-12 MEDIUM+FCS (manufactured by Biowest) having a final concentration of 2%
Detection reagent: CELLTITER-GLO™ LUMINESCENT CELL VIABILITY ASSAY (trade name, manufactured by PROMEGA Corporation)
The CHO-K1 cells were seeded in a 96-well microplate for culture at 5,000 cells/well, and cultured in a CO2 incubator (37° C.) for 24 hours. An evaluation compound (final concentration: from 25.00 μmol/L to 0.20 μmol/L, common ratio: […]) was added thereto, followed by culturing for 24 hours, and the number of viable cells was calculated from emission intensity by CELLTITER-GLO™ (trade name, manufactured by PROMEGA Corporation). In the measurement of the emission intensity, VARIOSKAN FLASH (manufactured by Thermo Fisher Scientific Inc.) was used.
Inhibition ratio (%)=100−(A/B)×100
A: Emission intensity in the presence of a test compound
B: Emission intensity in the absence of a test compound

human PI3Kα protein = biological target: T2, human PI3Kα protein (Homo sapiens, UniProt P42336); assay: PI3Kα enzyme assay (ADP-Glo); format: biochemical; conditions: read-out: PI3Kα enzyme inhibitory activity
T2 construct: purchased Carna Biosciences, Inc; host or cells: baculovirus expression system
T2 sequence (P42336 whole entry): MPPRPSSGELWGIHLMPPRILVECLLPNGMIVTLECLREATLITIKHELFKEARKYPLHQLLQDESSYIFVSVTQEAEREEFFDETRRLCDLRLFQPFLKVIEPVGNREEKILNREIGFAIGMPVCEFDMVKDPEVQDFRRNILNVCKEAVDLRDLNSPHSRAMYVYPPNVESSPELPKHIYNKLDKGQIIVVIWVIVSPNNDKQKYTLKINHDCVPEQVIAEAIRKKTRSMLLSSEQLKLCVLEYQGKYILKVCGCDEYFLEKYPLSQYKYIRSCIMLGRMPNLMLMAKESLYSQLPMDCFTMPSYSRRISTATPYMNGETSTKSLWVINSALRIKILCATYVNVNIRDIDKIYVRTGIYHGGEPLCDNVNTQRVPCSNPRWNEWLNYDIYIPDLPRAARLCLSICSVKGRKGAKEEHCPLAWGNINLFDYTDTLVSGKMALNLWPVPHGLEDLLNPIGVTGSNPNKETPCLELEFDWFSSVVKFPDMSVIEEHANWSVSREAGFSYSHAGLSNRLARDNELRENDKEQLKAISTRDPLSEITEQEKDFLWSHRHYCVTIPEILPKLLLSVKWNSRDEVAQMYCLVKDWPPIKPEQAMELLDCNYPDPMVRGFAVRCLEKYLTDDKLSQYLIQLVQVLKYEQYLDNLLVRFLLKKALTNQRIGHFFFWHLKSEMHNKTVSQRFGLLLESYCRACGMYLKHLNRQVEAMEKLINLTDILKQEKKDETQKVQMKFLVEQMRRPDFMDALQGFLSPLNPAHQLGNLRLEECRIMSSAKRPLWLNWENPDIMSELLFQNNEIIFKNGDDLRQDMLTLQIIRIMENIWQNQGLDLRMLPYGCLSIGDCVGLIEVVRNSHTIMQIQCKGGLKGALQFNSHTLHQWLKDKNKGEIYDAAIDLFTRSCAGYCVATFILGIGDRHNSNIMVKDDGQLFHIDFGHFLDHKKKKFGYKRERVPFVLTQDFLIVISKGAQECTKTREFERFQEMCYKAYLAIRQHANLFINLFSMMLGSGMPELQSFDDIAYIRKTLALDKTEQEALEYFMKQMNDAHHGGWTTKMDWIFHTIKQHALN
T2 sequence (P27986 whole entry partner): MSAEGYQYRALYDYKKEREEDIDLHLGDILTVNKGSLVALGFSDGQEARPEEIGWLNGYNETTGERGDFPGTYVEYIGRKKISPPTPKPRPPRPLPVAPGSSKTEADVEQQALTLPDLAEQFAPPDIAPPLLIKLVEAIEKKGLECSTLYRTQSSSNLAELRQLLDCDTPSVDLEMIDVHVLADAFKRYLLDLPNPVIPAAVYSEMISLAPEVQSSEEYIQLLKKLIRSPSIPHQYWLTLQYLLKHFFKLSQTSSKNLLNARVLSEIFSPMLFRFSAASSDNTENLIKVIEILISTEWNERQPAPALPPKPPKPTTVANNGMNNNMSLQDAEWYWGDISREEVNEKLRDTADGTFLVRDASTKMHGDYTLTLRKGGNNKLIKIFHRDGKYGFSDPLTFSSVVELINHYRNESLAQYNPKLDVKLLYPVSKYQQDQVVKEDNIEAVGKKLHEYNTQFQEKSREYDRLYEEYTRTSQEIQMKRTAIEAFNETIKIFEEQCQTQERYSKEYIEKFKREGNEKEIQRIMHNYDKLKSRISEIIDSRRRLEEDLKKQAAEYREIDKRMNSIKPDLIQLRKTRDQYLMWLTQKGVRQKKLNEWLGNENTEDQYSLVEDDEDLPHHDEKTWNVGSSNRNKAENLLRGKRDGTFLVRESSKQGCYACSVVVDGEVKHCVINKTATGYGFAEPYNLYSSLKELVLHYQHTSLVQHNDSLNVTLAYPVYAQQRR
Procedure, shortened: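 Biotinylated human PI3Kα (baculovirus-expressed, 4.5 nmol/L) pre-incubated 15 min with compound in Tris-HCl pH 7.5, MgCl2, BSA; reaction 60 min at 25° C with 50 μmol/L PIP2 and 100 μmol/L ATP final. ADP quantified by ADP-Glo luminescence; IC50 calculated.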

Compound	IC50 ([1]; ERK2 enzyme assay (2))	IC50 (human PI3Kα protein)	IC50 [1]	IC50 (CHO-K1 cells)
CC(C)c1cnnc(Nc2ccc3ncc(-c4cnn(CCCN5CCC(F)CC5)c4)cc3n2)c1 [Example 0413, 7-(1-(3-(4-Fluoropiperidin-1-yl)propyl)-1H-pyrazol-4-yl)-N-(5-isopropylpyridazin-3-yl)-1,5-naphthyridine-2-amine]	< 1 µM	< 1 µM		≥ 25 µM
CC(C)c1cnnc(Nc2ccc3ncc(-c4cnn(CC(O)CN5CCCC5)c4)cc3n2)c1 (stereo not drawn) [Example 0724, 1-(4-(6-((5-Isopropylpyridazin-3-yl)amino)-1,5-naphthyridin-3-yl)-1H-pyrazol-1-yl)-3-(pyrrolidin-1-yl)propan-2-ol]	< 1 µM	< 1 µM		≥ 25 µM
CC(C)c1cnnc(Nc2ccc3ncc(-c4cnn(CCCN5CC6CCC(C5)O6)c4)cc3n2)c1 [Example 0653, 7-(1-(3-(8-Oxa-3-azabicyclo[3.2.1]octan-3-yl)propyl)-1H-pyrazol-4-yl)-N-(5-isopropylpyridazin-3-yl)-1,5-naphthyridine-2-amine]	< 1 µM	< 1 µM		≥ 25 µM
Cc1nn(CCCN2C[C@@H](C)O[C@@H](C)C2)cc1-c1cnc2ccc(Nc3cc(C(C)C)cnn3)nc2c1 [Example 0431]	< 1 µM	< 1 µM		≥ 25 µM
CC(C)c1cnnc(Nc2ccc3ncc(-c4cnn(CCCS(C)(=O)=O)c4)cc3n2)c1 [Example 0550]	< 1 µM	< 1 µM		≥ 25 µM
CC(C)c1cnnc(Nc2ccc3ncc(-c4cnn(C5CCN(S(C)(=O)=O)CC5)c4)cc3n2)c1 [Example 0479]	< 1 µM	< 1 µM		≥ 25 µM
CC(C)c1cnnc(Nc2ccc3ncc(-c4cnn(Cc5ccc(N6CCOCC6)nc5)c4)cc3n2)c1 [Example 0462, N-(5-isopropylpyridazin-3-yl)-7-(1-((6-morpholinopyridin-3-yl)methyl)-1H-pyrazol-4-yl)-1,5-naphthyridine-2-amine]	< 1 µM	< 1 µM		≥ 25 µM
CC(C)c1cnnc(Nc2ccc3ncc(-c4cnn(CCCN5CCOC(CO)C5)c4)cc3n2)c1 (stereo not drawn) [Example 0678]	< 1 µM	< 1 µM		≥ 25 µM
CC(C)c1cnnc(Nc2ccc3ncc(-c4cnn(CC(F)(F)F)c4)cc3n2)c1 [Example 0460]	< 1 µM	< 1 µM		≥ 25 µM
CC(C)c1cnnc(Nc2ccc3ncc(-c4cnn(CCCN5CCCOCC5)c4)cc3n2)c1 [Example 0665]	< 1 µM	< 1 µM		≥ 25 µM
CC(C)c1cnnc(Nc2ccc3ncc(-c4cnn(CC5CN(S(C)(=O)=O)C5)c4)cc3n2)c1 [Example 0572, N-(5-isopropylpyridazin-3-yl)-7-(1-((1-(methylsulfonyl)azetidin-3-yl)methyl)-1H-pyrazol-4-yl)-1,5-naphthyridine-2-amine]	< 1 µM	< 1 µM		≥ 25 µM
CC(C)c1cnnc(Nc2ccc3ncc(-c4cnn(CC5CCN(S(C)(=O)=O)CC5)c4)cc3n2)c1 [Example 0530]	< 1 µM	< 1 µM		≥ 25 µM
COC1CN(CC(Cn2cc(-c3cnc4ccc(Nc5cc(C(C)C)cnn5)nc4c3)cn2)OC)C1 (stereo not drawn) [Example 0812, N-(5-isopropylpyridazin-3-yl)-7-(1-(2-methoxy-3-(3-methoxyazetidin-1-yl)propyl)-1H-pyrazol-4-yl)-1,5-naphthyridine-2-amine]	< 1 µM	< 1 µM		≥ 25 µM
CC(C)c1cnnc(Nc2ccc3ncc(-c4cnn(CCCN5CCO[C@H](C)C5)c4)cc3n2)c1 [Example 0645]	< 1 µM	< 1 µM		≥ 25 µM
CC(C)c1cnnc(Nc2ccc3ncc(-c4cnn(CCCN5CC6(COC6)C5)c4)cc3n2)c1 [Example 0613]	< 1 µM	< 1 µM		≥ 25 µM
CC(C)c1cnnc(Nc2ccc3ncc(-c4cnn(CCCN5CCOC[C@@H]5C)c4)cc3n2)c1 [Example 0650]	< 1 µM	< 1 µM		≥ 25 µM
CC(C)c1cnnc(Nc2ccc3ncc(-c4cnn(CCCN5CCOC[C@H]5C)c4)cc3n2)c1 [Example 0649]	< 1 µM	< 1 µM		≥ 25 µM

Now from value to compound, other results behind:

IC50 ([1]; ERK2 enzyme assay (2))	IC50 (human PI3Kα protein)	IC50 [1]	Compound	IC50 (CHO-K1 cells)
< 1 µM	< 1 µM		CC(C)c1cnnc(Nc2ccc3ncc(-c4cn(C)nc4CF)cc3n2)c1 [Example 0626, 7-(3-(Fluoromethyl)-1-methyl-1H-pyrazol-4-yl)-N-(5-isopropylpyridazin-3-yl)-1,5-naphthyridine-2-amine]	≥ 25 µM
< 1 µM	< 1 µM		CCn1cc(-c2cnc3ccc(Nc4cc(C(C)C)cnn4)nc3c2)c(-c2cccnc2)n1 [Example 0576]	≥ 25 µM
< 1 µM	< 1 µM		CC(C)c1cnnc(Nc2ccc3ncc(-c4c[nH]nc4-c4cccnc4)cc3n2)c1 [Example 0545]	≥ 25 µM
< 1 µM	< 1 µM		CC(C)c1cnnc(Nc2ccc3ncc(-c4cnn(CCCN5CC(O)C5)c4)cc3n2)c1 [Example 0629]	≥ 25 µM
< 1 µM	< 1 µM		Cc1nn(C)cc1-c1cnc2ccc(Nc3cc(C(C)C)cnn3)nc2c1 [Example 0757, 7-(1,3-dimethyl-1H-pyrazol-4-yl)-N-(5-isopropylpyridazin-3-yl)-1,5-naphthyridine-2-amine]	≥ 25 µM
< 1 µM	< 1 µM		Cn1cc(-c2cnc3ccc(Nc4cc(C5CCCC5)cnn4)nc3c2)c(CF)n1 [Example 0631, N-(5-cyclopentylpyridazin-3-yl)-7-(3-(fluoromethyl)-1-methyl-1H-pyrazol-4-yl)-1,5-naphthyridine-2-amine]	≥ 25 µM
	< 1 µM	< 1 µM	CCCc1cnnc(Nc2ccc3ncc(-c4cn(C)nc4C)cc3n2)c1 [Example 0919]	≥ 25 µM
< 1 µM	< 1 µM		CC(C)c1cnnc(Nc2ccc3ncc(-c4cnn(CC5CCN(C)CC5)c4)cc3n2)c1 [Example 0486, N-(5-isopropylpyridazin-3-yl)-7-(1-((1-methylpiperidin-4-yl)methyl)-1H-pyrazol-4-yl)-1,5-naphthyridine-2-amine]	≥ 25 µM
< 1 µM	< 1 µM		CCN(c1cnnc(Nc2ccc3ncc(-c4cnn(C)c4)cc3n2)c1)C(C)C [Example 0500]	≥ 25 µM
< 1 µM	< 1 µM		Cn1cc(-c2cnc3ccc(Nc4cc(C5CC5)cnn4)nc3c2)c(-c2cccnc2)n1 [Example 0573, N-(5-cyclopropylpyridazin-3-yl)-7-(1-methyl-3-(pyridin-3-yl)-1H-pyrazol-4-yl)-1,5-naphthyridine-2-amine]	≥ 25 µM
< 1 µM	< 1 µM		COc1ccc(-c2nn(C)cc2-c2cnc3ccc(Nc4cc(C(C)C)cnn4)nc3c2)cn1 [Example 0456]	≥ 25 µM
< 1 µM	< 1 µM		CC(C)c1cnnc(Nc2ccc3ncc(-c4cnn(CCCN5CC(F)C5)c4)cc3n2)c1 [Example 0694, 7-(1-(3-(3-Fluoroazetidin-1-yl)propyl)-1H-pyrazol-4-yl)-N-(5-isopropylpyridazin-3-yl)-1,5-naphthyridine-2-amine]	≥ 25 µM
< 1 µM	< 1 µM		CC(C)c1cnnc(Nc2ccc3ncc(-c4cnn(CC5CN(C)C5)c4)cc3n2)c1 [Example 0491]	≥ 25 µM
< 1 µM	< 1 µM		CC(C)c1cnnc(Nc2ccc3ncc(-c4cnn(Cc5cocn5)c4)cc3n2)c1 [Example 0450]	≥ 25 µM
< 1 µM	< 1 µM		CC(C)c1cnnc(Nc2ccc3ncc(-c4cnn([C@@H]5CCN(C)C5)c4)cc3n2)c1 [Example 0493]	≥ 25 µM
< 1 µM	< 1 µM		CC(C)c1cnnc(Nc2ccc3ncc(-c4cn(C)nc4CC4CCOCC4)cc3n2)c1 [Example 0773]	≥ 25 µM
< 1 µM	< 1 µM		CC(C)c1cnnc(Nc2ccc3ncc(-c4cn(C)nc4C(F)F)cc3n2)c1 [Example 0635]	≥ 25 µM
< 1 µM	< 1 µM		CC(C)c1cnnc(Nc2ccc3ncc(-c4cnn(C[C@@H]5CCC(=O)N5C)c4)cc3n2)c1 [Example 0557, (S)-5-((4-(6-((5-isopropylpyridazin-3-yl)amino)-1,5-naphthyridin-3-yl)-1H-pyrazol-1-yl)methyl)-1-methylpyrrolidin-2-one]	≥ 25 µM
